In ChEMBL document CHEMBL6092178, “Discovery of a novel KV7.2/7.3 channels agonist for the treatment of neuropathic pain” (Eur J Med Chem, 2024):

Target: Voltage-gated potassium channel, KQT; KCNQ2(Kv7.2)/KCNQ3(Kv7.3) (Homo sapiens, UniProt O43525+O43526)
Test: Agonist activity at human KCNQ2/3 transfected in human HEK293 cells incubated for 30 mins by fluorimetric assay
Type: cell-based

Voltage-gated potassium channel, KQT; KCNQ2(Kv7.2)/KCNQ3(Kv7.3), sequence (O43526 whole entry): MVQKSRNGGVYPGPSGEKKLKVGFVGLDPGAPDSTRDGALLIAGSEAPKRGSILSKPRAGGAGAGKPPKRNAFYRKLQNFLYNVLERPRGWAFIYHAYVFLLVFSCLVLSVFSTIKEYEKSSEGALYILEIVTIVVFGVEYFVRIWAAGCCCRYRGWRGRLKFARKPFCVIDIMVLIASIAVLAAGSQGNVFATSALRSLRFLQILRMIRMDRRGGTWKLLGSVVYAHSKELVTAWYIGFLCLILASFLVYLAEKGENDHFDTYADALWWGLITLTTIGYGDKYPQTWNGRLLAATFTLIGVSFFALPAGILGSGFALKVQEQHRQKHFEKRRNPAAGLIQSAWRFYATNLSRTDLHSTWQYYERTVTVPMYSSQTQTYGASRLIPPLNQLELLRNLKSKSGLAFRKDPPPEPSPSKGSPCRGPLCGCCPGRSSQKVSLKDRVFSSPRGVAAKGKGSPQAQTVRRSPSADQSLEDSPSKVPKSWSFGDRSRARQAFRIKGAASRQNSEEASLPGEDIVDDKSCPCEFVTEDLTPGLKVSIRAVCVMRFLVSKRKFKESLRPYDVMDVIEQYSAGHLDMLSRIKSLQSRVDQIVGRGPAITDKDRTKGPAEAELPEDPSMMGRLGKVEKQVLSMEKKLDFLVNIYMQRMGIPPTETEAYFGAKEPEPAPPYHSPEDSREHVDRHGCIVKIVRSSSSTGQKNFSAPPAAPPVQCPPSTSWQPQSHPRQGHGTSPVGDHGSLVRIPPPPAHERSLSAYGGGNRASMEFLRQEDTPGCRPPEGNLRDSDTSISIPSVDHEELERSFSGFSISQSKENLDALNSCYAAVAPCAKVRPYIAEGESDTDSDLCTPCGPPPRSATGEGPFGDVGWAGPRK
Voltage-gated potassium channel, KQT; KCNQ2(Kv7.2)/KCNQ3(Kv7.3), sequence (O43525 whole entry): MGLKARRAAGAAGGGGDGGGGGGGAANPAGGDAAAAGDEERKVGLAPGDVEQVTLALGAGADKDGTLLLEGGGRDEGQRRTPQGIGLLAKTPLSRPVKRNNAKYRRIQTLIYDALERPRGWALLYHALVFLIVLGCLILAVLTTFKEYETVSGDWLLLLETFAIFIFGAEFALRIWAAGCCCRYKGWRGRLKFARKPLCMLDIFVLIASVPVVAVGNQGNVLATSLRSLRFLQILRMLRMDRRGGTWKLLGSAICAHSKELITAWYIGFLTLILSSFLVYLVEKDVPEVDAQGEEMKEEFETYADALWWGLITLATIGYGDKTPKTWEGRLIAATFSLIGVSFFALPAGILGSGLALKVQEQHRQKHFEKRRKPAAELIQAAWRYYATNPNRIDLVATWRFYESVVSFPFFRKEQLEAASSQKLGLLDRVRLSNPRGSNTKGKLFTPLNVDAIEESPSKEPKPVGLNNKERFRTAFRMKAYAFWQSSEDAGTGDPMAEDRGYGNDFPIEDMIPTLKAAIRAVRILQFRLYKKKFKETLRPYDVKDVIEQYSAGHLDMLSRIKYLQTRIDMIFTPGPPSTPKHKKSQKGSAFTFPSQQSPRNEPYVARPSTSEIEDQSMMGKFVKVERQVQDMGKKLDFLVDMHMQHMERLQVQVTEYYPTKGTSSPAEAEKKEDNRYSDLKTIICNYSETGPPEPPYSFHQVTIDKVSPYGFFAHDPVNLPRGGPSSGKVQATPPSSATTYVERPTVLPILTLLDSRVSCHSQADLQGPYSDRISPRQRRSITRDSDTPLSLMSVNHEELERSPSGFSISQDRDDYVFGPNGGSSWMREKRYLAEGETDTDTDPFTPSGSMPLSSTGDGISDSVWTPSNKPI

Row | Structure (SMILES) | EC50
1 | CC(=O)Nc1nc(OC(C)c2ccc(F)cc2)ccc1N (stereo not drawn) | 18.9 µM
2 | Nc1ccc(OCc2ccc(F)cc2)nc1NC(=O)C1CCCCC1 | 164 µM
3 | Nc1ccc(OCc2ccc(F)cc2)nc1NC(=O)c1ccccc1 | 98.6 µM
4 | CCOC(=O)Nc1ccc(OCc2ccc(F)cc2)nc1NC(C)=O | 6.19 µM
5 | Nc1ccc(OCc2ccc(F)cc2)cc1NC(=O)C1CC1 | 30.3 µM
6 | CC(=O)Nc1nc(OCc2cccc3ccccc23)ccc1N | 218 µM
7 | CC(=O)Nc1nc(OCc2ccc(C(F)(F)F)cc2)ccc1N | 8.9 µM
8 | COc1cccc(COc2ccc(N)c(NC(C)=O)n2)c1 | 30.3 µM
9 | CCC(=O)Nc1nc(OCc2ccc(F)cc2)ccc1N | 13.9 µM
10 | CC(=O)Nc1nc(OCc2ccc(-c3ccccc3)cc2)ccc1N | 131 µM
11 | Nc1ccc(OCc2ccc(F)cc2)cc1NC(=O)c1ccccc1 | 196 µM
12 | CC(=O)Nc1nc(OCc2ccc(Cl)c(Cl)c2)ccc1N | 10.1 µM
13 | CC(=O)Nc1nc(OCc2ccc3c(c2)OCO3)ccc1N | 128 µM
